Source: patent publication US7368470B2, “Substituted 3-pyrrolidine-indole derivatives” (Gruenenthal GmbH, priority 2003, dated 2008)

Key:
[1] = system: binding site 2 of the sodium channel (batrachotoxin (BTX) binding site); assay: Binding test on the sodium channel, binding site 2 (BTX bond), [3H]-batrachotoxinin A20 α-benzoate as ligand; parameters: species or system rat; conditions: for BTX bond, % inhibition [10 μM]: rat cerebrocortex synaptosomes, ligand 10 nM, 25° C., 120 min
[2] = biological target: T1, serotonin reuptake (5HT uptake) (Rattus norvegicus, UniProt P31652); assay: Serotonin reuptake inhibition (5HT uptake inhibition) in rat brain synaptosomes; type: biochemical; conditions: synaptosomes from male rats' brains
T1 construct: These vesicular particles were isolated from the hypothalamus of male rats' brains for 5HT uptake; from tissue; host or cells: rat brain synaptosomes (P2 fraction; cerebral cortex / hypothalamus of male rats)
T1 sequence (P31652 whole entry): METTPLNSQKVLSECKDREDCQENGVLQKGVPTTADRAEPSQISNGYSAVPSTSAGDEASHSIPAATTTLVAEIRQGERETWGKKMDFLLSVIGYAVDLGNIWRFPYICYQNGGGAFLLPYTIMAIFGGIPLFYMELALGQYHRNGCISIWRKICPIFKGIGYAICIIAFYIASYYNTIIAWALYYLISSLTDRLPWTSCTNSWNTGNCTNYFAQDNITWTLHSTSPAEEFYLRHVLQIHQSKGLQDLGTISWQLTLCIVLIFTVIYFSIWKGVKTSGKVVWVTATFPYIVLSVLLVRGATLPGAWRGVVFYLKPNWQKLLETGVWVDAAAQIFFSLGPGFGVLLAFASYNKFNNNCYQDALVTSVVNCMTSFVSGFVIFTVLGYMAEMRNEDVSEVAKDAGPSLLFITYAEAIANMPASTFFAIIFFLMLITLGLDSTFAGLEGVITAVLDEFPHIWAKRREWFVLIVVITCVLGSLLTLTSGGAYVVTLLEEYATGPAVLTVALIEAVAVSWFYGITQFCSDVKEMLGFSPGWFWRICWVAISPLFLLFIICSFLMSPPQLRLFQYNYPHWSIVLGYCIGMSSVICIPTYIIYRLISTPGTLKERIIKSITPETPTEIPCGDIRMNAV
Excerpt: a) Tests on Serotonin Reuptake Inhibition
In order to be able to carry out these in vitro studies, synaptosomes from rats' cerebral cortices were freshly isolated. A “P2” fraction prepared according to Gray and Whittaker's instructions (E. G. Gray and V. P. Whittaker (1962) J. Anat. 76, 79-88) was used in each case. These vesicular particles were isolated from the hypothalamus of male rats' brains for 5HT uptake.
A detailed description of the method may be found in the literature (M. Ch. Frink, H.-H. Hennies, W. Englberger, M. Haurand and B. Wilffert (1996) Arzneim.-Forsch./Drug Res. 46 (III), 11, 1029-1036).

inhibition at 10 µM [2] [%] | Molecule | BTX bond, % inhibition [10 μM] [1] [%] | also measured
 | CCCc1ccc(C(=O)N2CCC(c3cn(Cc4ccc(C(F)(F)F)cc4)c4ccccc34)C2)cc1 (stereo not drawn) [Compound 1, (4-propyl-phenyl)-{3-[1-(4-trifluoromethyl-benzyl)-1H-indol-3-yl]-pyrrolidin-1-yl}-methanone] | 95 | 
 | COc1ccc(C(=O)N2CCC(c3cn(CCC(C)C)c4ccccc34)C2)cc1OC (stereo not drawn) [Compound 2, (3,4-dimethoxy-phenyl)-{3-[1-(3-methyl-butyl)-1H-indol-3-yl]-pyrrolidin-1-yl}-methanone] | 93 | 
 | CCCCn1cc(C2CCN(C(=O)c3ccc(C(F)(F)F)nc3C)C2)c2ccccc21 (stereo not drawn) [Compound 3] | 93 | 
 | COc1cccc(Cn2cc(C3CCN(C(=O)C=Cc4ccccc4)C3)c3ccccc32)c1 (stereo not drawn) [Compound 4, 1-{3-[1-(3-methoxy-benzyl)-1H-indol-3-yl]-pyrrolidin-1-yl}-3-phenyl-propenone] | 92 | 
 | O=C(c1cccc(F)c1F)N1CCC(c2cn(Cc3ccc(C(F)(F)F)cc3)c3ccccc23)C1 (stereo not drawn) [Compound 5, (2,3-difluoro-phenyl)-{3-[1-(4-trifluoromethyl-benzyl)-1H-indol-3-yl]-pyrrolidin-1-yl}-methanone] | 92 | 
 | CC(C)CCn1cc(C2CCN(C(=O)c3ccc(C(C)(C)C)cc3)C2)c2ccccc21 (stereo not drawn) [Compound 6, (4-tert-butyl-phenyl)-{3-[1-(3-methyl-butyl)-1H-indol-3-yl]-pyrrolidin-1-yl}-methanone] | 91 | 
 | CCCc1ccc(C(=O)N2CCC(c3cn(Cc4ccc(Br)cc4)c4ccccc34)C2)cc1 (stereo not drawn) [Compound 7, {3-[1-(4-bromo-benzyl)-1H-indol-3-yl]-pyrrolidin-1-yl}-(4-propyl-phenyl)-methanone] | 89 | 
 | CCOc1ccccc1C(=O)N1CCC(c2cn(Cc3cccc(OC)c3)c3ccccc23)C1 (stereo not drawn) [Compound 8, (2-ethoxy-phenyl)-{3-[1-(3-methoxy-benzyl)-1H-indol-3-yl]-pyrrolidin-1-yl}-methanone] | 88 | 
 | CCn1cc(C2CCN(C(=O)c3ccc(C(F)(F)F)c(F)c3)C2)c2ccccc21 (stereo not drawn) [Compound 9] | 84 | 
 | CCn1cc(C2CCN(C(=O)c3cccc(C)c3C)C2)c2ccccc21 (stereo not drawn) [Compound 10, (2,3-dimethyl-phenyl)-[3-(1-ethyl-1H-indol-3-yl)-pyrrolidin-1-yl]-methanone] | 83 | 
 | COc1cccc(Cn2cc(C3CCN(C(=O)C(C)Oc4ccccc4)C3)c3ccccc32)c1 (stereo not drawn) [Compound 11, 1-{3-[1-(3-methoxy-benzyl)-1H-indol-3-yl]-pyrrolidin-1-yl}-2-phenoxy-propan-1-one] | 83 | 
 | CCn1cc(C2CCN(C(=O)COc3cccc(Cl)c3)C2)c2ccccc21 (stereo not drawn) [Compound 12, 2-(3-chloro-phenoxy)-1-[3-(1-ethyl-1H-indol-3-yl)-pyrrolidin-1-yl]-ethanone] | 83 | 
 | CC(Oc1ccccc1)C(=O)N1CCC(c2cn(Cc3ccc(C#N)cc3)c3ccccc23)C1 (stereo not drawn) [Compound 13, 4-(3-[1-(2-phenoxy-propionyl)-pyrrolidin-3-yl]-indol-1-ylmethyl}-benzonitrile] | 82 | 
 | Cc1cc(C)c(S(=O)(=O)N2CCC(c3cn(CC(=O)N(C)C)c4ccccc34)C2)c(C)c1 (stereo not drawn) [Compound 14, N,N-dimethyl-2-{3-[1-(2,4,6-trimethyl-benzenesulphonyl)-pyrrolidin-3-yl]-indol-1-yl}-acetamide] | 80 | 
 | CCn1cc(C2CCN(C(=O)c3ccc(Cl)c(Cl)c3)C2)c2ccccc21 (stereo not drawn) [Compound 15, (3,4-dichloro-phenyl)-[3-(1-ethyl-1H-indol-3-yl)-pyrrolidin-1-yl]-methanone] | 80 | 
43 | CN(C)C(=O)Cn1cc(C2CCN(C(=O)NCc3ccc(Cl)c(Cl)c3)C2)c2ccccc21 (stereo not drawn) [Compound 17, 3-(1-dimethylcarbamoylmethyl-1H-indol-3-yl)-pyrrolidine-1-carboxylic acid 3,4-dichloro-benzylamide] |  | 
86 | COc1ccc(OC)c(CC(=O)N2CCC(c3cn(CC(=O)N(C)C)c4ccccc34)C2)c1 (stereo not drawn) [Compound 19, 2-(3-{1-[2-(2,5-dimethoxy-phenyl)-acetyl]-pyrrolidin-3-yl}-indol-1-yl)-N,N-dimethyl-acetamide] |  | 
84 | CN(C)C(=O)Cn1cc(C2CCN(C(=O)c3ccccn3)C2)c2ccccc21 (stereo not drawn) [Compound 21, N,N-dimethyl-2-{3-[1-(pyridin-2-carbonyl)-pyrrolidin-3-yl]-indol-1-yl}-acetamide] |  | 
58 | O=C(C1CCC1)N1CCC(c2c[nH]c3ccccc23)C1 (stereo not drawn) [Compound 22, cyclobutyl-[3-(1H-indol-3-yl)-pyrrolidin-1-yl]-methanone] |  | 
49 | CCCCC(=O)N1CCC(c2cn(CC(=O)N(CC)CC)c3ccccc23)C1 (stereo not drawn) [Compound 23, N,N-diethyl-2-[3-(1-pentanoyl-pyrrolidin-3-yl)-indol-1-yl]-acetamide] |  | 
 | CCN(CC)C(=O)Cn1cc(C2CCN(C(=O)C3CCCC3)C2)c2ccccc21 (stereo not drawn) [Compound 25, 2-1[3-(1-cyclopentanecarbonyl-pyrrolidin-3-yl)-indol-1-yl]-N,N-diethyl acetamide] |  | 5HT uptake, % inhibition [10 μM] [2]: 80%
70 | O=C(c1ccccc1Cl)N1CCC(c2c[nH]c3ccccc23)C1 (stereo not drawn) [Compound 27, (2-chloro-phenyl)-[3-(1H-indol-3-yl)-pyrrolidin-1-yl]-methanone] |  | 
63 | Cc1ccc(S(=O)(=O)NC(Cc2ccccc2)C(=O)N2CCC(c3cn(CC(=O)N(C)C)c4ccccc34)C2)cc1 (stereo not drawn) [Compound 29, N,N-dimethyl-2-(3-{1-[3-phenyl-2-(toluene-4-sulphonylamino)-propionyl]-pyrrolidin-3-yl)-indol-1-yl)-acetamide] |  | 
47 | CN(C)C(=O)Cn1cc(C2CCN(S(=O)(=O)Cc3ccccc3)C2)c2ccccc21 (stereo not drawn) [Compound 30, N,N-dimethyl-2-[3-(1-phenylmethanesulphonyl-pyrrolidin-3-yl)-indol-1-yl]-acetamide] |  | 
46 | Cn1cc(C2CCN(C(=O)c3c(F)c(F)c(F)c(F)c3F)C2)c2ccccc21 (stereo not drawn) [Compound 47, [3-(1-methyl-1H-indol-3-yl)-pyrrolidin-1-yl]-pentafluorophenyl-methanone] |  | 
83 | Cc1cc(C)cc(Cn2cc(C3CCN(CC(=O)Nc4scc(C)c4C#N)C3)c3ccccc32)c1 (stereo not drawn) [Compound 50, N-(3-cyano-4-methyl-thiophen-2-yl)-2-{3-[1-(3,5-dimethyl-benzyl)-1H-indol-3-yl]-pyrrolidin-1-yl}acetamide] |  | 
 | O=C(CN1CCC(c2cn(Cc3ccc(F)c(F)c3)c3ccccc23)C1)Nc1csc(C(F)(F)F)c1-c1ccccc1 (stereo not drawn) [Compound 53, 2-{3-[1-(3,4-difluoro-benzyl)-1H-indol-3-yl]-pyrrolidin-1-yl}-N-(4-phenyl-5-trifluiommethyl-thiophen-3-yl)-acetamide] |  | 5HT uptake, % inhibition [10 μM] [2]: 55%
 | [^3H]-batrachotoxinin A20 α-benzoate [reference compound] |  | Kd ([1]; radioligand, mean±SEM, N=3 independent test series, read-out: KD value for this binding site): 24.6 ± 1.56 nM

Molecule | inhibition at 10 µM [2] [%] | BTX bond, % inhibition [10 μM] [1] [%] | also measured
Cc1oc(C(C)(C)C)cc1C(=O)N1CCC(c2cn(Cc3ccccc3C#N)c3ccccc23)C1 (stereo not drawn) [Compound 33, 2-{3-[1-(5-tert-butyl-2-methyl-furan-3-carbonyl)pyrrolidin-3-yl]-indol-1-ylmethyl)-benzonitrile] | 87 | 89 | 
